Test results published in paper PMC3578829, “A Small Molecule (Pluripotin) as a Tool for Studying Cancer Stem Cell Biology: Proof of Concept” (PLoS ONE, 2013).
Values joined by “and” are separate entries in the source; they are usually repeats but may differ in a detail not shown here. Identical values can stand only once.

Columns and labels:
[1] = system: HCT-116; assay: Limiting dilution tumorigenicity, s.c. xenograft without protein support; assay type: in vivo, NOD.SCID mice; parameters: key to Tumorigenicity: Y indicates increased tumor formation or increased time to appearance or both.; Y ^%: Y indicates increased tumor formation when Matrigel was co-injected
Description: (§1) Five day exposures were conducted.
(§2) Six week old female NOD.SCID mice were randomly assigned to each of 20 treatment arms (n = 5/group). Treated and control colon tumor lines were enzymatically harvested and counted prior to dilution in RPMI 1640 (at 10, 100, 1,000, 10,000 cells/inoculum) for subcutaneous injection into the axillary region using a volume of […]. Positive control groups were established such that tumor formation occurred in all mice in approximately one week thus confirming that all tumor lines studied were tumorigenic. Cell inocula for the positive control groups ranged from 1×10^6 to 2.5×10^6. Cell viability of the cell stocks was assessed by trypan blue exclusion prior to dilution for injection and was routinely found to be >95%. Tumor formation was monitored weekly using caliper measurements and the tumor mass was calculated as weight in mg = 1/2×(tumor length)×(tumor width)^2. All experiments were terminated at 120 days or when tumor weight exceeded 2000 mg for any individual mouse. In selected studies, tumor cells were resuspended in Matrigel (50% concentration, BD Biosciences) prior to injection.

[2] = system: HT29; assay: as above; assay type: in vivo, NOD.SCID mice; parameters: key to Tumorigenicity: Y indicates increased tumor formation or increased time to appearance or both.; Y ^%: Y indicates increased tumor formation when Matrigel was co-injected
Description: as §1, §2

[3] = system: HCC-2998; assay: as above; assay type: in vivo, NOD.SCID mice; parameters: key to Tumorigenicity: Y indicates increased tumor formation or increased time to appearance or both.; Y ^%: Y indicates increased tumor formation when Matrigel was co-injected
Description: as §1, §2

[4] = system: SW-620; assay: as above; assay type: in vivo, NOD.SCID mice; parameters: key to Tumorigenicity: Y indicates increased tumor formation or increased time to appearance or both.; Y ^%: Y indicates increased tumor formation when Matrigel was co-injected
Description: as §1, §2

[5] = system: COLO 205; assay: as above; assay type: in vivo, NOD.SCID mice; parameters: key to Tumorigenicity: Y indicates increased tumor formation or increased time to appearance or both.; Y ^%: Y indicates increased tumor formation when Matrigel was co-injected
Description: as §1, §2

[6] = system: phospho-ERK1/2; parameters: method as in PMID 17088537; conditions: murine embryonic stem cells; 30 minutes of exposure; cited from earlier work
[7] = system: HT29; assay: Sphere formation in serum free media and low attachment vessels; assay type: cell-based; conditions: serum free media, low attachment vessels, 0.1 µM SC-1, Day 1 and Day 5
Description: HT29 tumor line was cultured at 0.5–8 cells/µl in serum free media (RPMI 1640 containing EGF (20 ng/ml), bFGF (10 ng/ml) and B27 supplement) one day prior to addition of SC-1 (0.1 µM). The number of spheres per well was counted on Day 1 (A) and Day 5 (B) following treatment. Statistically significant effects (*p<0.05) for SC-1 treatment were found at all conditions where spheres formed. A representative experiment of 3 is shown here. (PDF) Click here for additional data file.

[8] = system: colon tumor lines; assay: Cloning assay, all colon tumor lines; assay type: cell-based
Description: Culture dishes were transferred to a refrigerator (4°C) for 15 min, to room temperature for 10 min, and then to culture incubators. An upper layer of 0.5 ml culture medium was applied on day 0. Cultures were stained with MTT (1 mg/ml) for visualization and imaging at multiple time intervals (day 7 and 14). Cumulative counts of colonies (diameters, >60 µm) and cumulative volumes of CFU (diameters >120 µm) were determined with an Omnicon FAS-II (Bausch & Lomb, Rochester, NY) following calibration with an Omnicon test plate 3 and polystyrene microspheres embedded in soft agar matrix. The evaluable region of each culture dish (35 contiguous fields equivalent to 51% of the cell layer culture volume) was analyzed. Selective scoring of viable cell groups was achieved by adjustment of the instrument detection threshold to exclude images of nonstained cellular material and debris. The data was analyzed with Lotus Symphony software.

[9] = molecular target: RSK2 (Homo sapiens, UniProt P51812); assay: In vitro kinase inhibition assay (modified Nguyen et al.); assay type: biochemical; conditions: RSK2 N-terminal domain; mean±SD, n = 5; concentration inhibiting 50% of control activity
Chain of RSK2 (P51812 whole entry, species assumed, the tested form may be a part): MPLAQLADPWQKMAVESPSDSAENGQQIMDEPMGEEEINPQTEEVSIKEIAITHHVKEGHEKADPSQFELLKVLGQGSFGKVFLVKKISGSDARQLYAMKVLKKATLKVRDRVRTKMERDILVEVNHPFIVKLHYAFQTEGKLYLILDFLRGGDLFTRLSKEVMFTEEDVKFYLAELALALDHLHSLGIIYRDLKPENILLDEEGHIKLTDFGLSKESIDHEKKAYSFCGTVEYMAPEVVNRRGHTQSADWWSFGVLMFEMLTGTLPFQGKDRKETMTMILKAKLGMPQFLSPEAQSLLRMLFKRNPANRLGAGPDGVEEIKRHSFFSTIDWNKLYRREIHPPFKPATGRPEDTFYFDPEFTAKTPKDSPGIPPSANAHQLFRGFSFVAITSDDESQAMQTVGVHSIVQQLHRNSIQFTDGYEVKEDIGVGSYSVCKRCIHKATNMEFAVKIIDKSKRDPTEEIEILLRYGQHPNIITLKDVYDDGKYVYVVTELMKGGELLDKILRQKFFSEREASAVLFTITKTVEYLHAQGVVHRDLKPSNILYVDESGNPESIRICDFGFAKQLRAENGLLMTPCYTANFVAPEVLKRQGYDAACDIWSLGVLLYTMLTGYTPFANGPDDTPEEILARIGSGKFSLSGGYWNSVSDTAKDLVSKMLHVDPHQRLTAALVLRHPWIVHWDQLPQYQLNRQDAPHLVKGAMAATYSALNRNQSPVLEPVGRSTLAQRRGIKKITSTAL
Description: The RSK2 in vitro kinase inhibition assay utilized was a modification of protocols established by Nguyen et al.. Additional protocols that confirmed the results depicted in Figure 4 and evaluated kinase inhibitory activity in a random selection of protein kinases (Table 3) were conducted at Reaction Biology Corporation (Malvern, PA). This was a miniaturized ^33P-based screening assay.

EC50 [9]: 2.5 ± 1.8 µM
SMILES: Cc1cc(Nc2ncc3c(n2)N(C)C(=O)N(c2cc(NC(=O)c4cccc(C(F)(F)F)c4)ccc2C)C3)n(C)n1 [SC-1]
Tumorigenicity ([1]; HCT-116, summary of SC-1 effects): Y | Tumor take rate ([1]; HCT-116 treated 5 days with 0.1 µM SC-1, 100 cells inoculated s.c.): 0/5 | Tumor take rate ([1]; HCT-116 treated 5 days with 0.1 µM SC-1, 1000 cells inoculated s.c.): 2/5 | Tumor take rate ([1]; HCT-116 treated 5 days with 0.1 µM SC-1, 10000 cells inoculated s.c.): 5/5 | Calculated Time to 1000 mg Tumor Volume ([1]; HCT-116 treated 5 days with 0.1 µM SC-1, 10,000 cells/inoculum, extrapolated from fitted line): 45 days | Tumorigenicity ([2]; HT29, summary of SC-1 effects): Y | Tumor take rate ([2]; HT29 treated 5 days with 0.1 µM SC-1, 100 cells inoculated s.c.): 2 of 5 and 2/5 | Tumor take rate ([2]; HT29 treated 5 days with 0.1 µM SC-1, 1000 cells inoculated s.c.): 3/5@ | Tumor take rate ([2]; HT29 treated 5 days with 0.1 µM SC-1, 10000 cells inoculated s.c.): 5/5 | Calculated Time to 1000 mg Tumor Volume ([2]; HT29 treated 5 days with 0.1 µM SC-1, 10,000 cells/inoculum, extrapolated from fitted line): 32 days | Tumorigenicity ([3]; HCC-2998, summary of SC-1 effects): Y | Tumor take rate ([3]; HCC-2998 treated 5 days with 0.1 µM SC-1, 100 cells inoculated s.c.): 0/5 | Tumor take rate ([3]; HCC-2998 treated 5 days with 0.1 µM SC-1, 1000 cells inoculated s.c.): 0/5 | Tumor take rate ([3]; HCC-2998 treated 5 days with 0.1 µM SC-1, 10000 cells inoculated s.c.): 2/5 | Calculated Time to 1000 mg Tumor Volume ([3]; HCC-2998 treated 5 days with 0.1 µM SC-1, 10,000 cells/inoculum, extrapolated from fitted line): 139 days | Tumorigenicity ([4]; SW-620, summary of SC-1 effects): Y | Tumor take rate ([4]; SW-620 treated 5 days with 0.1 µM SC-1, 100 cells inoculated s.c.): 0/5 | Tumor take rate ([4]; SW-620 treated 5 days with 0.1 µM SC-1, 1000 cells inoculated s.c.): 0/5 | Tumor take rate ([4]; SW-620 treated 5 days with 0.1 µM SC-1, 10000 cells inoculated s.c.): 2/5 | Calculated Time to 1000 mg Tumor Volume ([4]; SW-620 treated 5 days with 0.1 µM SC-1, 10,000 cells/inoculum, extrapolated from fitted line): 98 days | Tumorigenicity ([5]; COLO 205, summary of SC-1 effects): Y | Tumor take rate ([5]; COLO 205 treated 5 days with 0.1 µM SC-1, 100 cells inoculated s.c.): 0/5 | Tumor take rate ([5]; COLO 205 treated 5 days with 0.1 µM SC-1, 1000 cells inoculated s.c.): 1/5 | Tumor take rate ([5]; COLO 205 treated 5 days with 0.1 µM SC-1, 10000 cells inoculated s.c.): 4 of 5 and 4/5 | Calculated Time to 1000 mg Tumor Volume ([5]; COLO 205 treated 5 days with 0.1 µM SC-1, 10,000 cells/inoculum, extrapolated from fitted line): 101 days | phospho-ERK1/2 protein levels [6]: inhibited | Number of spheres per well vs control [7]: Increased Sphere Formation | Cloning efficiency, all tumor lines ([8]; assay conducted using Matrigel instead of soft agar (data not shown)): increased cloning efficiency | Tumor lines with statistically significant increases in cumulative colony forming unit (CFU) mass ([8]; soft agar, 0.1 µM SC-1 for five days, vs control treated cells): 5/7
